Our source for the inhibition and IC50 values is article PMC11487561 (ACS Chemical Neuroscience, 2024).

In one data set the target is Glucocorticoid (Homo sapiens, UniProt P04150). The experiment in a line: Lead Profiling Screen – Eurofins Panlabs. Particulars: read-out: % inh at 10 μM. Format: binding.
A further data set has as its target T1, Adenosine A1 (Homo sapiens, UniProt P30542).
T1 construct: Eurofins Panlabs
The experiment in a line: Lead Profiling Screen – Eurofins Panlabs. In kind it is binding. The note with it: read-out: % inh at 10 μM.

Another data set has as its target T2, Adrenergic α2A (Homo sapiens, UniProt P08913).
T2 construct: Eurofins Panlabs (contract screen)
The experiment in a line: Lead Profiling Screen – Eurofins Panlabs. In kind it is binding. The note with it: read-out: % inh at 10 μM.

Another data set has as its target T3, Adenosine A3 (Homo sapiens, UniProt P0DMS8).
T3 construct: Eurofins Panlabs
The experiment in a line: Lead Profiling Screen – Eurofins Panlabs. In kind it is binding. Particulars: read-out: % inh at 10 μM.

The target of a further data set is Neuropeptide Y Y1 (Homo sapiens, UniProt P25929). Nature of the data set: Lead Profiling Screen – Eurofins Panlabs. In kind it is binding. The note with it: read-out: % inh at 10 μM.
Data set [1] deals with T4, Epidermal Growth Factor (EGF) (Homo sapiens, UniProt P00533).
T4 construct: Eurofins Panlabs (contract screen)
Nature of the data set: Lead Profiling Screen – Eurofins Panlabs. Format: binding. Particulars: read-out: % inh at 10 μM.

The target in the next data set is T5, hERG (Homo sapiens, UniProt Q12809).
T5 construct: Charles River Laboratories
Nature of the data set: Cardiac Ion Channel Panel – Charles River (QPatch HT patch clamp). Format: cell-based. On the procedure: page 17: Table S3. Cardiac Ion Channel Panel - Charles River Laboratories for VU6016235 Ion Channel Concentration Mean % Standard Standard n (μM) Inhibition Deviation Error hCav1.2 10 13.9 8.9 5.1 3 hCav3.2 10 6.7 2.7 1.4 4 hHCN2 10 2.6 1.9 1.1 3 hERG 10 10.9 0.9 0.4 4 hKv1.5 10 1.3 1.8 0.9 4 […] 10 4.1 5.6 2.8 4 hKv1.3 10 9 2.9 1.7 3 hNav1.5 (Tonic) 10 5.8 0.6 0.4 3 […] (Phasic) The in vitro effects of VU6016235 were evaluated at room temperature using the QPatch HT® (Sophion Bioscience A/S, Denmark), an automatic parallel patch clamp system. VU6016235 was evaluated at a concentration of 10 μM and tested in at least 3 cells (n ≥ 3). The duration of exposure to each test article concentration was at least 5 minutes. Rat Amphetamine-Induced Hyperlocomotion (AHL) Protocol Male Harlan Sprague Dawley rats with a mean body weight of 240 g (range 221-264 g) were tested in SmartFrame Open Field locomotor activity test chambers to automatically record locomotor activity. All […] for an additional 30 min with either vehicle or a dose of VU6016235 or the comparator M 4 PAM […] Next, rats were injected subcutaneously with vehicle or a dose of 0.75 mg/kg amphetamine and then monitored for an additional 60 min. Changes in locomotor activity were recorded for a total of 120 min. Locomotor data were expressed as the number of photobeam breaks/5 min intervals across the 120-min test session or as the total ambulation, calculated as sum of photobeam beam breaks from the time of amphetamine administration (60 min) until the end of the study (120 min). Time course data were analyzed by two-way ANOVA with main effects of treatment and time; changes in total ambulation were analyzed by one-way ANOVA followed by Dunnett's post hoc test (GraphPad Prism 7 [GraphPad Software, San Diego, CA]). For all tests, α ≤ 0.05 was considered to represent statistical significance. Finally, percent reversal data were calculated in Microsoft Excel using the following formula: Percent Reversal = 100 - {[(total ambulation in individual animal from t = 60 to t = 120) / (mean total ambulation S17

The target in the next data set is T6, CYP 2C9 (Homo sapiens, UniProt P11712).
T6 construct: from tissue; host or cells: pooled human liver microsomes (according to the earlier reading)
Nature of the data set: P450 inhibition in pooled human liver microsomes. In kind it is in vitro ADME. Particulars: pooled HLM, NADPH, CYP-specific probe substrates. (Microsomes from liver hold many membrane-bound enzymes, among them those of drug oxidation.)

The target of data set [2] is Transporter, Norepinephrine (NET) (Homo sapiens, UniProt P23975). Nature of the data set: Lead Profiling Screen – Eurofins Panlabs. The note with it: read-out: % inh at 10 μM. Format: binding.
For the next data set, the target named is T7, Adrenergic β1 (Homo sapiens, UniProt P08588).
T7 construct: Eurofins Panlabs (contract screen)
Nature of the data set: Lead Profiling Screen – Eurofins Panlabs. The note with it: read-out: % inh at 10 μM. In kind it is binding.

T4 sequence (P00533 25-1210): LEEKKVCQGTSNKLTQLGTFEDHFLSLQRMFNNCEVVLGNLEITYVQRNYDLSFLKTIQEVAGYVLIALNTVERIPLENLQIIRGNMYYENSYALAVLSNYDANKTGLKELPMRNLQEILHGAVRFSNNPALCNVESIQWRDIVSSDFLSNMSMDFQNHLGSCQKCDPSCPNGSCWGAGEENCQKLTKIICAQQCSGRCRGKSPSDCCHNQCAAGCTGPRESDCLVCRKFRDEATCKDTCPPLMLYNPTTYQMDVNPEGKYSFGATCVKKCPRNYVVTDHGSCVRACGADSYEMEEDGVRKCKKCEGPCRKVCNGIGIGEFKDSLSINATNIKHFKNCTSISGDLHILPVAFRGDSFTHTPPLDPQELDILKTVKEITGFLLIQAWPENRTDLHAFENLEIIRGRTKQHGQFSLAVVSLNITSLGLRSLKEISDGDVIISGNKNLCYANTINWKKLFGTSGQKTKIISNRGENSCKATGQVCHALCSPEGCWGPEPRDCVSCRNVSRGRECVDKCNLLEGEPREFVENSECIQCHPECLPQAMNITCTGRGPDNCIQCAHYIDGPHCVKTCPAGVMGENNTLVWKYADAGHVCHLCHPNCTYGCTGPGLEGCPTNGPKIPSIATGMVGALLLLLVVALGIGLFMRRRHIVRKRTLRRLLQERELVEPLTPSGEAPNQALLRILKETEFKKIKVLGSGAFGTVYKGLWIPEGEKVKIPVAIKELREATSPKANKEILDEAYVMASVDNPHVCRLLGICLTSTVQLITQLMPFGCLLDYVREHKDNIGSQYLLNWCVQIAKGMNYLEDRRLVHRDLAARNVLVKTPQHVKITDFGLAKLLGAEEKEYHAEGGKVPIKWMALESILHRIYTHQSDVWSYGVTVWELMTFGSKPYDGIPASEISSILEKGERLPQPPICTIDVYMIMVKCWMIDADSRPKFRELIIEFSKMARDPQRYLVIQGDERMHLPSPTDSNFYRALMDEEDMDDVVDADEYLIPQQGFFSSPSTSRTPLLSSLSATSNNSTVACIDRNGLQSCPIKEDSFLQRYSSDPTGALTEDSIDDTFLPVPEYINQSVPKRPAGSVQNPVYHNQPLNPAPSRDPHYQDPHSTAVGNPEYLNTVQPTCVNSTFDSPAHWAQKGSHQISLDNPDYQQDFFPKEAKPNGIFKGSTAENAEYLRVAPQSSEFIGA
T2 sequence (P08913 whole entry): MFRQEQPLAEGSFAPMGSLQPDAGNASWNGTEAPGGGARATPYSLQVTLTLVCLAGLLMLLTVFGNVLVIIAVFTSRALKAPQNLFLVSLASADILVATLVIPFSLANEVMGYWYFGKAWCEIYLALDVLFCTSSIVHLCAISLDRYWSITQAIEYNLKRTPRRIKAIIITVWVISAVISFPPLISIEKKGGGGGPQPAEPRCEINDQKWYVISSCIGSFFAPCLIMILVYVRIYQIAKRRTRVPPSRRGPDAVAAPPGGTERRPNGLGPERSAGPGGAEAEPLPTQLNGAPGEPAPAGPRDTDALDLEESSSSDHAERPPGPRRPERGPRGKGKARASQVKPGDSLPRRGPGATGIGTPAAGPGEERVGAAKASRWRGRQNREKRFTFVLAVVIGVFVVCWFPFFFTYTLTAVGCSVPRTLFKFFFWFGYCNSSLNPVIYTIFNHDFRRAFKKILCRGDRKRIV
T7 sequence (P08588 whole entry): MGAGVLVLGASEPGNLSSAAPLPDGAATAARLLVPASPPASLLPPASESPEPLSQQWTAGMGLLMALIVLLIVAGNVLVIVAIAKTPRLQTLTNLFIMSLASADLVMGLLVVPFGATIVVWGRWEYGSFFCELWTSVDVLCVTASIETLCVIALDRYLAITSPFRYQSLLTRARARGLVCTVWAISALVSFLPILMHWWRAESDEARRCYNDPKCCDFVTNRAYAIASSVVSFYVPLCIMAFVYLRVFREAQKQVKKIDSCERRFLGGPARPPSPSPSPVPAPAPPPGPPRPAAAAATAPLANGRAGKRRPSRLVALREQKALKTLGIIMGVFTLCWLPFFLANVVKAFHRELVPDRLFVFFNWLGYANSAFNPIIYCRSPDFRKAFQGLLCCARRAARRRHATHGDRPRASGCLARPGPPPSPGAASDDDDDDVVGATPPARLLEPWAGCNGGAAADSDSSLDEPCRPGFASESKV
Chain of Glucocorticoid (P04150 whole entry): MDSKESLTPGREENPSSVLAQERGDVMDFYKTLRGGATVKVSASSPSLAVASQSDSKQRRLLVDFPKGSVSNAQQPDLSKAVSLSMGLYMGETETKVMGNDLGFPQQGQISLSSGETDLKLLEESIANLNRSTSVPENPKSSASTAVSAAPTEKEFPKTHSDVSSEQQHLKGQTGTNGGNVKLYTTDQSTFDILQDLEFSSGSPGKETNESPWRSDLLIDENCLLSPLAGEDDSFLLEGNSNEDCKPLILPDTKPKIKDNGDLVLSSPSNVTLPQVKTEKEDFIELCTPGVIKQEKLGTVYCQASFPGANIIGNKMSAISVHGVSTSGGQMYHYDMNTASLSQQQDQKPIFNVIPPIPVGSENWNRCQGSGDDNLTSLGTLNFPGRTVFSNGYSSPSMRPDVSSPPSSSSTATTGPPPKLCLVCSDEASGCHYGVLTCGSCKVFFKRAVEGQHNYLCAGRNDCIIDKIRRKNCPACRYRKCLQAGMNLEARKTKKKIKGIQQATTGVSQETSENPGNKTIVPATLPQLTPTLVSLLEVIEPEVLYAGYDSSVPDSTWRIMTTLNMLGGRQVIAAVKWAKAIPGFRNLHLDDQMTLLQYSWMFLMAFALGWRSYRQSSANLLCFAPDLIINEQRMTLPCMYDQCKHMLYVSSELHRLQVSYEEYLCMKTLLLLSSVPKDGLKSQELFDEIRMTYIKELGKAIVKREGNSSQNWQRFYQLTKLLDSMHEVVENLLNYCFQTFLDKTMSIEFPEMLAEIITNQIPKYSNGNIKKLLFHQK
Chain of Neuropeptide Y Y1 (P25929 whole entry): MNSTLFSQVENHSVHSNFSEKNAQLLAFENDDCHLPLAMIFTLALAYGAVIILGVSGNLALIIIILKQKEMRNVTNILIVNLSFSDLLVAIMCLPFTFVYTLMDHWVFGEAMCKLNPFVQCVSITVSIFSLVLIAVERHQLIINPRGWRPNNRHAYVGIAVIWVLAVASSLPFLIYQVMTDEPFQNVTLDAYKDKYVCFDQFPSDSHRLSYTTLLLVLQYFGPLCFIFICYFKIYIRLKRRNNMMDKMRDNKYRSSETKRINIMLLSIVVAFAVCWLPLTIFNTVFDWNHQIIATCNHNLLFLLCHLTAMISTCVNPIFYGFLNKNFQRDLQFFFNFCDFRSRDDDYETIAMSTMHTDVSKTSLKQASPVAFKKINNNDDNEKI
T5 sequence (Q12809 whole entry): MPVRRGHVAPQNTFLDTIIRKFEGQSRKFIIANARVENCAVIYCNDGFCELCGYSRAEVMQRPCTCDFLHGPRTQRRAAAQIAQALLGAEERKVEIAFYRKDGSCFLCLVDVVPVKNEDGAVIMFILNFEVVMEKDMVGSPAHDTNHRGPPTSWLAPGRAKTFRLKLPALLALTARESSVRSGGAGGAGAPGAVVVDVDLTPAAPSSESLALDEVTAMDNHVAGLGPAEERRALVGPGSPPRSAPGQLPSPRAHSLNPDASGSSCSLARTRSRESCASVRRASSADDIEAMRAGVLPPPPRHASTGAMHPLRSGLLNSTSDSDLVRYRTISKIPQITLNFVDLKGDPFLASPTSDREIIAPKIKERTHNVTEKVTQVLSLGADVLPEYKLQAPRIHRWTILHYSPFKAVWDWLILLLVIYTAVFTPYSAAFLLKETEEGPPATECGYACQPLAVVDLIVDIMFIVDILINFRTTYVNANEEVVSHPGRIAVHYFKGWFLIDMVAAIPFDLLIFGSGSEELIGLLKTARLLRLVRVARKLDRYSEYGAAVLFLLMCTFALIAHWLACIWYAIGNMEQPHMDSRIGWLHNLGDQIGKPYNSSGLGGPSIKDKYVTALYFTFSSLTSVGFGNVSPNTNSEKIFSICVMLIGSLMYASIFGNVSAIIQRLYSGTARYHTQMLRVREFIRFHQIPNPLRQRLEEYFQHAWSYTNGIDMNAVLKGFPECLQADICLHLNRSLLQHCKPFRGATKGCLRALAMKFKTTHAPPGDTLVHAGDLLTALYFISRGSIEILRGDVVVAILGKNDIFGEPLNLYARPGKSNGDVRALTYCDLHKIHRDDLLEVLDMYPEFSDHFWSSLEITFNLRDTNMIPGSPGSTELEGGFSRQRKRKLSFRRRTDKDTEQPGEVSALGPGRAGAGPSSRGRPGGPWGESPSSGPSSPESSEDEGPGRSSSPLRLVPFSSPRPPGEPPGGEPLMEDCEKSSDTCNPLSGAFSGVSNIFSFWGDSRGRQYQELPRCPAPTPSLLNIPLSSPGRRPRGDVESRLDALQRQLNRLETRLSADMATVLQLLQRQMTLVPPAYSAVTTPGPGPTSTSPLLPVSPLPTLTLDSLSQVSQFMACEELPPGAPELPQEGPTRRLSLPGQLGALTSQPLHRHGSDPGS
T3 sequence (P0DMS8 whole entry): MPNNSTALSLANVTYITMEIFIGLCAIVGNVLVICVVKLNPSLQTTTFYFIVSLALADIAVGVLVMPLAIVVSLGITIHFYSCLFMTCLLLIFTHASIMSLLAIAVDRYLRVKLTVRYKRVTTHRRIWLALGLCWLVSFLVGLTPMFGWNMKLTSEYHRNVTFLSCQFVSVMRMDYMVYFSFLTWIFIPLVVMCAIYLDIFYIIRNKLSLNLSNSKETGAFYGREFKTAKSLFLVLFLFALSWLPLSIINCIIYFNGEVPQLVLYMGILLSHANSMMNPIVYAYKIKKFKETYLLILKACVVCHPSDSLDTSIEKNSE

For `Cc1nc(C)c2c(n1)sc1c(NCc3ccc(C(C)(C)O)cc3)nccc12` [22g], the inhibition at 10 µM was -10% at Glucocorticoid; 6% at Adenosine A1; -9% on Adrenergic α2A; 22% on Adenosine A3; -1% at Neuropeptide Y Y1; -3% in data set [1]. Besides, the inhibition at 10 µM at hERG worked out at 10.9%; in data set [2], 26%; at Adrenergic β1, 3%. For the same molecule, on CYP 2C9, 17 µM corresponded to half-maximal inhibition (IC50).

In general, IC50 refers to the point on the concentration scale where inhibition reaches its midpoint. Lower therefore signals higher potency.
